According to US20080188483A1, “Compounds and Compositions as Protein Kinase Inhibitors” (IRM LLC, priority 2006, published 2008):

Target: b-Raf (Homo sapiens, UniProt P15056)
Assay: b-Raf enzymatic assay
Format: biochemical
Procedure: Compounds of the invention are tested for their ability to inhibit the activity of b-Raf. The assay is carried out in 384-well MaxiSorp plates (NUNC) with black walls and clear bottom. The substrate, IκBα: is diluted in DPBS (1:750) and 15 μl is added to each well. The plates are incubated at 4° C. overnight and washed 3 times with TBST (25 mM Tris, pH 8.0, 150 mM NaCl and 0.05% Tween-20) using the EMBLA plate washer. Plates are blocked by Superblock (15 μl/well) for 3 hours at room temperature, washed 3 times with TBST and pat-dried. Assay buffer containing 20 μM ATP (10 μl) is added to each well followed by 100 nl or 500 nl of compound. B-Raf is diluted in the assay buffer (1 μl into 25 μl) and 10 μl of diluted b-Raf is added to each well (0.4 μg/well). The plates are incubated at room temperature for 2.5 hours. The kinase reaction is stopped by washing the plates 6 times with TBST. Phosph-IκBα (Ser32/36) antibody is diluted in Superblock (1:10,000) and […] is added to each well. The plates are incubated at 4° C. overnight and washed 6 times with TBST. AP-conjugated goat-anti-mouse IgG is diluted in Superblock (1:1,500) and 15 μl is added to each well. Plates are incubated at room temperature for 1 hour and washed 6 times with TBST. […] Plates are read on Acquest or Analyst GT using a Fluorescence Intensity Program (Excitation 455 nm, Emission 580 nm).

Sequence of b-Raf (P15056 whole entry): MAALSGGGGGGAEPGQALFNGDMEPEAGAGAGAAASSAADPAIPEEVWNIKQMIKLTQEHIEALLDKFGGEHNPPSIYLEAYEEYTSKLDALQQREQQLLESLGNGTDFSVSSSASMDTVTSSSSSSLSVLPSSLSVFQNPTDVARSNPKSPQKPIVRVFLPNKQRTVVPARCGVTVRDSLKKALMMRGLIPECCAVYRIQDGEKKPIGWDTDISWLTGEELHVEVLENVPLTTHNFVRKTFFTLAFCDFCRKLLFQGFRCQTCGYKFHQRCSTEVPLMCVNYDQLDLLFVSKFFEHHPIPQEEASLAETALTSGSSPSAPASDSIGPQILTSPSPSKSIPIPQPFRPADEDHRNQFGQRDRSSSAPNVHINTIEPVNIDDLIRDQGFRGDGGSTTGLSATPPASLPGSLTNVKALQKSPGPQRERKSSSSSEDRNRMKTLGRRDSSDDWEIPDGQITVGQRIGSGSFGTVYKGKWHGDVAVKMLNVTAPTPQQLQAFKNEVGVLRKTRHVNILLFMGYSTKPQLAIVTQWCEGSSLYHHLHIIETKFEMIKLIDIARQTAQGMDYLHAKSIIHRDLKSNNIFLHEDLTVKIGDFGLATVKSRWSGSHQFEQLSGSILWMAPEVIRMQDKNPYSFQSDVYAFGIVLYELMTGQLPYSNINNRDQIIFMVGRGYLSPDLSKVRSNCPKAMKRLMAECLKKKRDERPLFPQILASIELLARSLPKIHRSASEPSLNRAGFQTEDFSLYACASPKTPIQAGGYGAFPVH

`Cc1cn(-c2cc(C(=O)Nc3ccc(C)c(Nc4nccn4-c4ncnc5[nH]ccc45)c3)cc(C(F)(F)F)c2)cn1` [Example 2, 3-(4-methyl-imidazol-1-yl)-N-{4-methyl-3-[1-(7H-pyrrolo[2,3-d]pyrimidin-4-yl)-1H-imidazol-2-ylamino]-phenyl}-5-trifluoromethyl-benzamide] gave an IC50 of 2 nM.
